Results from ChEMBL document CHEMBL4219086, “Development of benzoxazole deoxybenzoin oxime and acyloxylamine derivatives targeting innate immune sensors and xanthine oxidase for treatment of gout” (Bioorg Med Chem, 2018).
Calls of active or inactive are those of the source. No cut-off for these calls is given here.

Experiments:
Rattus norvegicus [1] = assay: Inhibition of MSU-induced TNFalpha level in synovial homogenate of acute gouty arthritis Sprague-Dawley rat model at 2.5 to 10 mg/kg, po qd pretreated via gavage for 5 days followed by MSU treatment at 1 hr post last dose measured up to 24 hrs by ELISA; assay type: functional, organism-based
Rattus norvegicus [2] = assay: Inhibition of MSU-induced ASC protein level in synovial homogenate of acute gouty arthritis Sprague-Dawley rat model at 2.5 to 10 mg/kg, po qd pretreated via gavage for 5 days followed by MSU treatment at 1 hr post last dose measured up to 24 hrs by Western blot method; assay type: functional, organism-based
Rattus norvegicus [3] = assay: (§1) Antiarthritic activity in MSU-induced acute gouty arthritis Sprague-Dawley rat model assessed as reduction in ankle swelling by measuring perimeter of ankle at 10 mg/kg, po qd pretreated via gavage for 5 days followed by MSU treatment at 1 hr post last dose measured after 2 hrs (reference value: 2.82 +/- 0.75 cm); assay type: functional
Rattus norvegicus [4] = assay: as §1, with “5” for “10”; assay type: functional
Rattus norvegicus [5] = assay: as §1, with “immediately” for “after 2 hrs”, “2.64” for “2.82”, “0.81” for “0.75”; assay type: functional
Rattus norvegicus [6] = assay: as §1, with “5” for “10”, “immediately” for “after 2 hrs”, “2.64” for “2.82”, “0.81” for “0.75”; assay type: functional
[7] = molecular target: NACHT, LRR and PYD domains-containing protein 3 (Homo sapiens, UniProt Q96P20); assay: Inhibition of NLRP3 inflammasome in human THP1 cells assessed as reduction in MSU-induced IL-1beta production preincubated for 1 hr followed by MSU stimulation measured after 6 hrs; assay type: cell-based
Sequence of NACHT, LRR and PYD domains-containing protein 3 (Q96P20 whole entry, the tested form may be a part): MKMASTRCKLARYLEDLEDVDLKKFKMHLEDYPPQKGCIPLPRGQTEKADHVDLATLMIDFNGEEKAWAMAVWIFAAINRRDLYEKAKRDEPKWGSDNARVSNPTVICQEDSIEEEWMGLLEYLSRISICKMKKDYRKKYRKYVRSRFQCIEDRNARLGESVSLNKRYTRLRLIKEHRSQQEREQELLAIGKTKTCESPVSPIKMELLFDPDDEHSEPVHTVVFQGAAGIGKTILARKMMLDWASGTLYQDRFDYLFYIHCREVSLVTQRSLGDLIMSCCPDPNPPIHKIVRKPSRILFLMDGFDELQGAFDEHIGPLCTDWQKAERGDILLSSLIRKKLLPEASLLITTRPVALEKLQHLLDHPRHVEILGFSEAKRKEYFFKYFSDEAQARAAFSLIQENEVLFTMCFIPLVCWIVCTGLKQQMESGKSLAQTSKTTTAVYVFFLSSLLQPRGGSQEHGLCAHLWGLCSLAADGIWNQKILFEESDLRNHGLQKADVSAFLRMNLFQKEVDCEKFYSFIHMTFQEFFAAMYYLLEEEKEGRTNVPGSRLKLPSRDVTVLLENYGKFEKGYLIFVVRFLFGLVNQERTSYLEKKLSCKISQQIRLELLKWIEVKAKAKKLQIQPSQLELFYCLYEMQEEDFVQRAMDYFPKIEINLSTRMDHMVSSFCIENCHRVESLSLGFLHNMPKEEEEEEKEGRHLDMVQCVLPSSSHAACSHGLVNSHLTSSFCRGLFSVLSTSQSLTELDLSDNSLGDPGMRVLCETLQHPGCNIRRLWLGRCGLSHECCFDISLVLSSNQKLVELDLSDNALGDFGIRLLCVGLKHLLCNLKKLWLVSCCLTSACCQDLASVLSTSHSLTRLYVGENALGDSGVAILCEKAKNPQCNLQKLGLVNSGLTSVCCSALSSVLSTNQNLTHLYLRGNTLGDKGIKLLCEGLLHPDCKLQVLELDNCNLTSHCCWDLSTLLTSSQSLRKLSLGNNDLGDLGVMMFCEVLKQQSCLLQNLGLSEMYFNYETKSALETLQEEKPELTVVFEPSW

Rattus norvegicus [8] = assay: as §1, with “2.5” for “10”; assay type: functional
Rattus norvegicus [9] = assay: as §1, with “8” for “2”, “3.27” for “2.82”, “0.56” for “0.75”; assay type: functional
Mus musculus = assay: In vivo inhibition of XOD activity in liver of Kunming mouse model of potassium oxonate-induced hyperuricemia at 5 mg/kg, po treated 1 hr post potassium oxonate addition measured after 1 hr relative to control; assay type: functional
Rattus norvegicus [10] = assay: Inhibition of MSU-induced phosphorylated IkappaB protein level in synovial homogenate of acute gouty arthritis Sprague-Dawley rat model at 2.5 to 10 mg/kg, po qd pretreated via gavage for 5 days followed by MSU treatment at 1 hr post last dose measured up to 24 hrs by Western blot method; assay type: functional, organism-based
Rattus norvegicus [11] = assay: as §1, with “2.5” for “10”, “24” for “2”, “3.35” for “2.82”, “0.5” for “0.75”; assay type: functional

IC50 [7]: 1220 nM
Structure (SMILES): COc1ccc(C/C(=N\O)c2nc3ccc(OC)cc3o2)cc1
inhibition (Rattus norvegicus [1]): Active | inhibition (Rattus norvegicus [2]): Active | Activity (Rattus norvegicus [3]): 2.69 cm | Activity (Rattus norvegicus [4]): 2.56 cm | Activity (Rattus norvegicus [5]): 2.56 cm | Activity (Rattus norvegicus [6]): 2.7 cm | Activity (Rattus norvegicus [8]): 2.78 cm | Activity (Rattus norvegicus [9]): 2.72 cm | inhibition in vivo at 5 mg/kg (Mus musculus): 35.8% | inhibition (Rattus norvegicus [10]): Active | Activity (Rattus norvegicus [11]): 2.97 cm
